Reference: patent US10265270B2, “Solid dispersion of decoquinate, a preparation process and its application” (GUANGZHOU CAS LAMVAC BIOTECH CO., LTD., priority 2015, dated 2019)

Experiments:
[1] = In vitro dissolution test (paddle method); assay type: physicochemical; conditions: cumulative in vitro dissolution rate, 0.1 N HCl and 10 mM SDS, 37° C., 50 rpm
Protocol: The dissolution medium was a solution of 0.1 N hydrochloric acid (HCl) and 10 mM sodium dodecyl sulfonate (SDS). The instrument used in the test was RC-6 dissolution rate apparatus (Tianjin). The instrument parameters were set to 37° C., 50 rpm, the paddle method. To each dissolution vessel was added 900 ml of dissolution medium followed by initiating the instrument. When the temperature of the medium in each vessel reached 37° C., corresponding testing sample was added. One ml of sample solution was taken out at time points of 10, 20, 40, 60, 90, 120, 180, 240 and 270 minute respectively, and then 1 ml of dissolution medium was added back to supplement the vessel volume. The sample solutions collected from dissolution testing was passed through a 0.45 μm filter and the filtrate was analyzed by HPLC (Agilent, 1260) to determine the amount of DQ. An isocratic mobile phase of 80% ethanol and 20% water and a wavelength 260 nm were chosen for HPLC analysis.

[2] = Thermogravimetric analysis; assay type: physicochemical; conditions: at 250.5° C., heating rate 10° C./min, nitrogen
Protocol: The pure DQ was weighed for thermogravimetric analysis. The instruments used in the analysis included a balance with 0.0001 accuracy (Sartorius, available from Sartorius Scientific Instruments, Model: BSA124S) and a thermogravimetric analyzer (NETZSCH, Model: TG209F1, Germany).
Detection conditions, nitrogen: 20 mL/min, scanning procedures: temperature was increased to 350° C. from room temperature, heating rate: 10° C./min; detection was performed based on the General Rules for Thermal Analysis JY/T014-1996.

Plasmodium berghei ANKA = assay: In vivo efficacy experiment, mice inoculated with sporozoites; conditions: NIH female mice, after 21 days; DQ 3, 10, 30 mg/kg; primaquine 30 mg/kg
Protocol: The NIH female mice used for the experiment were raised at least for 7 days after arrival. At the start of experiment, the mice were 7 weeks old. Only one mouse was housed in each cage maintained in a room with a temperature range of 18 to 26° C., a relative humidity of 34% to 68% in a 12/12 h light-dark cycle. Food and water were provided ad libitum during quarantine and throughout the study. This experiment was carried out in strict accordance with the relevant animal testing regulations (Guide for the Care and Use of Laboratory Animals, NRC publication, 2011 edition). The DQ suspension used in the animal experiment was from the product of Example 1, prepared with saline and subjected to ultrasonic treatment for 5 minutes. […] The detection of Plasmodium parasitemia was performed as follows: conventional method was used to count red blood cells per mm^3 of blood in that a thin film of blood was prepared and stained with 3% Giemsa for 20 minutes; and then the number of infected red blood cells per 1000 red blood cells was counted under oil microscope to obtain erythrocyte infected rate (EIR, %o). Survival rate was calculated on day 22 post-infection.
The dosage of product of Example 1 was calculated based on decoquinate mg/kg body weight, the negative control group used was saline, and the positive control group used 30 mg primaquine per kg body weight. […]

| SMILES | Dissolved at 60 min ([1]; 60 min) | Dissolved at 90 min ([1]; 90 min) | amount of DQ remaining by weight in thermogravimetric analysis [2] [% by weight] | animal survival (Plasmodium berghei ANKA) |
| --- | --- | --- | --- | --- |
| CCCCCCCCCCOc1cc2c(O)c(C(=O)OCC)cnc2cc1OCC [Pure DQ, Decoquinate] | 6.87 | 14.60 | 99 | – |
| COc1cc(NC(C)CCCN)c2ncccc2c1 (stereo not shown) [primaquine] | – | – | – | all animals survived |
